Reference: PubChem BioAssay AID2060885 (Molecular Pharmacology Branch, DTP, NCI, 2025)

Tested on: NCI-H23 complex spheroids with HUVEC/MSC, viability
Assay: Anticancer human tumor NCI-H23 cell line growth inhibition [RAS];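 also: spheroids exposed to compound for 7 days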;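 as to viability, T/C: 100% = DMSO vehicle control viability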
Details: for IC50: curve of first compound; for viability, T/C: stronger effect = lower value
In short: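 Agents were tested in combination matrices in half-log decrements from a top concentration at or near clinical Cmax (10 microM if undetermined). Targets were multi-cell spheroids of tumour lines plus HUVEC and MSC stromal cells.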

CC(Nc1ccc2c(c1)OCCn1cc(N3C(=O)OCC3C(F)F)nc1-2)C(N)=O (centres undefined) + C=CC(=O)N1CCN(c2nc(OCC3CCCN3C)nc3c(F)c(-c4nc(N)cc(C)c4C(F)(F)F)c(Cl)cc23)C(C)C1
IC50 (second compound 0.00316 µM): 142 nM
IC50 (second compound 0.01 µM): < 31.6 nM
IC50 (second compound 0.0316 µM): < 31.6 nM
IC50 (second compound 0.1 µM): < 31.6 nM
IC50 (second compound 0.316 µM): < 31.6 nM
IC50 (second compound 1 µM): < 31.6 nM
viability, T/C (second compound 0.00316 µM, first compound 0.0316 µM): 51.2%
viability, T/C (second compound 0.00316 µM, first compound 0.1 µM): 60.2%
viability, T/C (second compound 0.00316 µM, first compound 0.316 µM): 34.6%
viability, T/C (second compound 0.00316 µM, first compound 1 µM): 39.1%
viability, T/C (second compound 0.00316 µM, first compound 3.16 µM): 35.8%
viability, T/C (second compound 0.00316 µM, first compound 10 µM): 38.3%
viability, T/C (second compound 0.01 µM, first compound 0.0316 µM): 43.8%
viability, T/C (second compound 0.01 µM, first compound 0.1 µM): 40.7%
viability, T/C (second compound 0.01 µM, first compound 0.316 µM): 35.9%
viability, T/C (second compound 0.01 µM, first compound 1 µM): 28.7%
viability, T/C (second compound 0.01 µM, first compound 3.16 µM): 31%
viability, T/C (second compound 0.01 µM, first compound 10 µM): 26.5%
viability, T/C (second compound 0.0316 µM, first compound 0.0316 µM): 36.4%
viability, T/C (second compound 0.0316 µM, first compound 0.1 µM): 35.5%
viability, T/C (second compound 0.0316 µM, first compound 0.316 µM): 27.2%
viability, T/C (second compound 0.0316 µM, first compound 1 µM): 27.3%
viability, T/C (second compound 0.0316 µM, first compound 3.16 µM): 24.8%
viability, T/C (second compound 0.0316 µM, first compound 10 µM): 23.3%
viability, T/C (second compound 0.1 µM, first compound 0.0316 µM): 31.4%
viability, T/C (second compound 0.1 µM, first compound 0.1 µM): 29.3%
viability, T/C (second compound 0.1 µM, first compound 0.316 µM): 26.4%
viability, T/C (second compound 0.1 µM, first compound 1 µM): 27.6%
viability, T/C (second compound 0.1 µM, first compound 3.16 µM): 22.9%
viability, T/C (second compound 0.1 µM, first compound 10 µM): 22.4%
viability, T/C (second compound 0.316 µM, first compound 0.0316 µM): 28.7%
viability, T/C (second compound 0.316 µM, first compound 0.1 µM): 31.2%
viability, T/C (second compound 0.316 µM, first compound 0.316 µM): 30%
viability, T/C (second compound 0.316 µM, first compound 1 µM): 23.7%
viability, T/C (second compound 0.316 µM, first compound 3.16 µM): 25.9%
viability, T/C (second compound 0.316 µM, first compound 10 µM): 24.3%
viability, T/C (second compound 1 µM, first compound 0.0316 µM): 33%
viability, T/C (second compound 1 µM, first compound 0.1 µM): 33.5%
viability, T/C (second compound 1 µM, first compound 0.316 µM): 28.8%
viability, T/C (second compound 1 µM, first compound 1 µM): 22.5%
viability, T/C (second compound 1 µM, first compound 3.16 µM): 27.8%
viability, T/C (second compound 1 µM, first compound 10 µM): 25%

CC(=O)OC12COC1CC(O)C1(C)C(=O)C(O)C3=C(C)C(OC(=O)C(O)C(NC(=O)OC(C)(C)C)c4ccccc4)CC(O)(C(OC(=O)c4ccccc4)C21)C3(C)C (centres undefined) + CCn1c(-c2cc(N3CCN(C)CC3)cnc2C(C)OC)c2c3cc(ccc31)-c1csc(n1)CC(NC(=O)C1CC1C)C(=O)N1CCCC(N1)C(=O)OCC(C)(C)C2
IC50 (second compound 0.000949 µM): < 31.6 nM
IC50 (second compound 0.003 µM): < 31.6 nM
IC50 (second compound 0.00949 µM): < 31.6 nM
IC50 (second compound 0.03 µM): < 31.6 nM
IC50 (second compound 0.0949 µM): < 31.6 nM
IC50 (second compound 0.3 µM): < 31.6 nM
viability, T/C (second compound 0.000949 µM, first compound 0.0316 µM): 13.9%
viability, T/C (second compound 0.000949 µM, first compound 0.1 µM): 16.1%
viability, T/C (second compound 0.000949 µM, first compound 0.316 µM): 14.7%
viability, T/C (second compound 0.000949 µM, first compound 1 µM): 15.5%
viability, T/C (second compound 0.000949 µM, first compound 3.16 µM): 21.5%
viability, T/C (second compound 0.000949 µM, first compound 10 µM): 25.5%
viability, T/C (second compound 0.003 µM, first compound 0.0316 µM): 11.9%
viability, T/C (second compound 0.003 µM, first compound 0.1 µM): 12.4%
viability, T/C (second compound 0.003 µM, first compound 0.316 µM): 11.6%
viability, T/C (second compound 0.003 µM, first compound 1 µM): 12.1%
viability, T/C (second compound 0.003 µM, first compound 3.16 µM): 17.1%
viability, T/C (second compound 0.003 µM, first compound 10 µM): 19.4%
viability, T/C (second compound 0.00949 µM, first compound 0.0316 µM): 12.5%
viability, T/C (second compound 0.00949 µM, first compound 0.1 µM): 10.9%
viability, T/C (second compound 0.00949 µM, first compound 0.316 µM): 11.6%
viability, T/C (second compound 0.00949 µM, first compound 1 µM): 13.9%
viability, T/C (second compound 0.00949 µM, first compound 3.16 µM): 15.8%
viability, T/C (second compound 0.00949 µM, first compound 10 µM): 17.3%
viability, T/C (second compound 0.03 µM, first compound 0.0316 µM): 11.4%
viability, T/C (second compound 0.03 µM, first compound 0.1 µM): 11.7%
viability, T/C (second compound 0.03 µM, first compound 0.316 µM): 12%
viability, T/C (second compound 0.03 µM, first compound 1 µM): 12.5%
viability, T/C (second compound 0.03 µM, first compound 3.16 µM): 16.4%
viability, T/C (second compound 0.03 µM, first compound 10 µM): 19.9%
viability, T/C (second compound 0.0949 µM, first compound 0.0316 µM): 10.7%
viability, T/C (second compound 0.0949 µM, first compound 0.1 µM): 10.6%
viability, T/C (second compound 0.0949 µM, first compound 0.316 µM): 10.4%
viability, T/C (second compound 0.0949 µM, first compound 1 µM): 10.9%
viability, T/C (second compound 0.0949 µM, first compound 3.16 µM): 12.4%
viability, T/C (second compound 0.0949 µM, first compound 10 µM): 14.9%
viability, T/C (second compound 0.3 µM, first compound 0.0316 µM): 10.1%
viability, T/C (second compound 0.3 µM, first compound 0.1 µM): 8.97%
viability, T/C (second compound 0.3 µM, first compound 0.316 µM): 10.4%
viability, T/C (second compound 0.3 µM, first compound 1 µM): 8.98%
viability, T/C (second compound 0.3 µM, first compound 3.16 µM): 12.6%
viability, T/C (second compound 0.3 µM, first compound 10 µM): 14.2%
